Experimental data published in patent US20260250318A1, “COMPOSITIONS AND METHODS FOR CROSSING THE BLOOD BRAIN BARRIER” (VOYAGER THERAPEUTICS, INC., priority 2022, published 2026).

System: brain
Experiment: Maturation of TTM-001 capsid, NGS enrichment in brain of CD-1 Outbred mice
Format: in vivo
Settings: NGS fold-enrichment of TTM-001 matured AAV capsid variants in the brain of CD-1 Outbred mice; intravenous 1.0×10^12 VG/dose; 14 days in life; RNA; relative to non-matured TTM-001 control
Excerpt: This Example describes maturation of the TTM-001 (SEQ ID NO: 981 (amino acid) and 983 (DNA), comprising SEQ ID NO: 941) and TTM-002 (SEQ ID NO: 982 (amino acid) and 984 (DNA), comprising SEQ ID NO: 2) capsid variants to further enhance their transduction and biodistribution in the central nervous system and evolve the AAV capsid variants to provide further cross-species compatibility. Two approaches were used to mature the TTM-001 and TTM-002 capsid sequences in order to randomize and mutate within and around the peptide insert comprised within loop IV of the capsid variant. […] In the first maturation approach, sets of three contiguous amino acids were randomized across the mutagenesis region in the TTM-001 and TTM-002 sequences, which spanned from position 450 to position 466, numbered according to SEQ ID NO: 981 and 982. In the second maturation approach, mutagenic primers were used to introduce point mutations at a low frequency, scattered across the mutagenesis region in the TTM-001 and TTM-002 sequences ranging from position 449 to position 466, numbered according to SEQ ID NO: 981 and 982. AAV capsid variants arising from each maturation approach for TTM-001 were pooled together and AAV capsid variants arising from each maturation approach for TTM-002 were also pooled together, for subsequent testing and characterization in mice.
The library of pooled matured AAV capsid variants generated from TTM-001 or library of pooled matured AAV capsid variants generated from the TTM-002 matured AAV capsid variant each were intravenously injected into the tail vein of three female CD-1 Outbred mice (Charles River) at a dose of 1.0×10^12 VG/dose. After 14-days in life, the brains of the mice were isolated and RNA was extracted. Following RNA recovery and RT-PCR amplification, a systematic NGS enrichment analysis was performed to calculate the fold enrichment ratio relative to the corresponding TTM-001 or TTM-002 control, and the peptides comprised within the variants were identified. The data for the TTM-001 matured capsid variants is provided in Table 13 and the data for the TTM-002 matured capsid variants is provided in Table 14.

Sequence	Fold enrichment over TTM-001 [fold]
KTINGRHSPHLKAQNQQT	2.369
KTINGRISPHGKAQNQQT	2.492
KTINGRISPHLKAQNQQT	2.028
KTINGRKSPHSKAQNQQT	2.985
KTINGRLSPHFKAQNQQT	2.097
KTINGRLSPHRKAQNQQT	2.238
KTINGRPSPHIKAQNQQT	2.155
KTINGRPSPHSKAQNQQT	2.276
KTINGRPSPHVKAQNQQT	2.419
KTINGRQSPHAKAQNQQT	2.026
KTINGRQSPHTKAQNQQT	2.294
KTINGRQSPHVKAQNQQT	2.557
KTINGRRSPHLKAQNQQT	2.391
KTINGRRSPHTKAQNQQT	2.069
KTINGRSSPHFKAQNQQT	2.428
KTINGRSSPHGKAQNQQT	3.035
KTINGRSSPHPKAQNQQT	2.596
KTINGRSSPHRKAQNQQT	2.965
KTINGRTSPHAKAQNQQT	2.060
KTINGRYSPHSKAQNQQT	2.080

Sequence	Fold enrichment over TTM-001 [fold]
KTINGSASPHVFAQNQQT	2.186
KTINGSASPHWSAQNQQT	2.121
KTINGSCSPHLAAQNQQT	2.134
KTINGSCSPHLRAQNQQT	2.423
KTINGSCSPHPLAQNQQT	3.086
KTINGSCSPHRKAQNQQT	4.801
KTINGSCSPHSGAQNQQT	2.994
KTINGSCSPHSLAQNQQT	2.099
KTINGSCSPHVRAQNQQT	2.406
KTINGSESPHDSAQNQQT	2.164
KTINGSGSPHAFLQNQQT	2.475
KTINGSGSPHALFQNQQT	2.261
KTINGSGSPHCLAQNQQT	4.847
KTINGSGSPHCLLQNQQT	4.898
KTINGSGSPHCLSQNQQT	2.114
KTINGSGSPHCSAQNQQT	2.339
KTINGSGSPHCSLQNQQT	4.540
KTINGSGSPHCSSQNQQT	2.253
KTINGSGSPHCTLQNQQT	2.497
KTINGSGSPHCVAQNQQT	2.080

Sequence	Fold enrichment over TTM-001 [fold]
KTINGSGSPHEHNQNQQT	2.199
KTINGSGSPHELPQNQQT (KTINGSGSPHFLPQNQQT)	2.123
KTINGSGSPHFHLQNQQT	2.121
KTINGSGSPHFLLQNQQT	2.758
KTINGSGSPHFLNQNQQT	2.359
KTINGSGSPHFLRQNQQT	4.777
KTINGSGSPHFMRQNQQT	2.123
KTINGSGSPHGLWQNQQT	2.181
KTINGSGSPHGWAQNQQT	2.121
KTINGSGSPHIYLQNQQT	2.542
KTINGSGSPHIYRQNQQT	2.782
KTINGSGSPHLCLQNQQT	3.425
KTINGSGSPHLFRQNQQT	2.324
KTINGSGSPHLKRQNQQT	2.564
KTINGSGSPHLLFQNQQT	2.069
KTINGSGSPHLLWQNQQT	3.855
KTINGSGSPHLLYQNQQT	2.983
KTINGSGSPHLNWQNQQT	3.112
